This note sets out measurements from ChEMBL document CHEMBL4392841, “Identification of ortho-hydroxy anilide as a novel scaffold for lysine demethylase 5 inhibitors” (Bioorg Med Chem Lett, 2019).

Test [1] addresses T1, Lysine-specific demethylase 5A (Homo sapiens, UniProt P29375). Put plainly: Inhibition of C-terminal FLAG-tagged human KDM5A expressed in Sf9 cells at 50 uM pre-incubated for 4 hrs before substrate addition and measured after 1 hr by AlphaScreen assay. (Bead proximity is the source of the signal in Alpha formats.)
For test [2], the target named is T1, Lysine-specific demethylase 5A. Put plainly: Inhibition of C-terminal FLAG-tagged human KDM5A expressed in Sf9 cells pre-incubated for 4 hrs before substrate addition and measured after 1 hr by AlphaScreen assay.
In test [3] the target is T2, Lysine-specific demethylase 4A (Homo sapiens) (UniProt O75164).
T2 sequence (whole entry): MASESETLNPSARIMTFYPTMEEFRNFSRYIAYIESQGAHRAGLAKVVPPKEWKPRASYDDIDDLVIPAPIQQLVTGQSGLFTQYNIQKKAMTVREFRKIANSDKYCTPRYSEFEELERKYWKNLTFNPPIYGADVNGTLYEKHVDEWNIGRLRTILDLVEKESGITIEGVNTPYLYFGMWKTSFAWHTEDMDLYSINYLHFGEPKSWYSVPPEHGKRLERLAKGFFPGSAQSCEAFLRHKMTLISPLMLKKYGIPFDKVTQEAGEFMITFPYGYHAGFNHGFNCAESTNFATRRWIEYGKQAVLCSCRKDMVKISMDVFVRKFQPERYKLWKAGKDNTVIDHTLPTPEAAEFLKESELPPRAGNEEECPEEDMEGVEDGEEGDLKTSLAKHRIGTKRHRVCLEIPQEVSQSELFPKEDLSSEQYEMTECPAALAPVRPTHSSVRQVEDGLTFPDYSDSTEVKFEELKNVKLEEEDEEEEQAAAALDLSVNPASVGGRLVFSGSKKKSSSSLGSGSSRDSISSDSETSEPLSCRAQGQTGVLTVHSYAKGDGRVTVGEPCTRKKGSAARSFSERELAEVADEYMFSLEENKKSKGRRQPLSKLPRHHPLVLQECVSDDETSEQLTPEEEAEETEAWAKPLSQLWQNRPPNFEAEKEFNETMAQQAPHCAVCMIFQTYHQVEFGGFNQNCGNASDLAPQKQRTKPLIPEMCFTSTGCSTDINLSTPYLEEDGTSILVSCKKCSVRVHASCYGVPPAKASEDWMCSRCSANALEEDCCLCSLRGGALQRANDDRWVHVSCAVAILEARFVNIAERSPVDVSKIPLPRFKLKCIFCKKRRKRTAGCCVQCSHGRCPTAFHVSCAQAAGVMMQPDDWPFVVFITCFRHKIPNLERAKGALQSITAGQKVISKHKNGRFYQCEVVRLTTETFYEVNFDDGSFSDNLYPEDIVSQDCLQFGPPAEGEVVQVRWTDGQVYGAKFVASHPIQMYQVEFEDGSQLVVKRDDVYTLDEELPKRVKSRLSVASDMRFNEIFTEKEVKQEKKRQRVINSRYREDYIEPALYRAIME
The experiment in a line: Inhibition of C-terminal FLAG-tagged human KDM4A expressed in Escherichia coli at 50 uM pre-incubated for 4 hrs before substrate addition and measured after 1 hr by AlphaScreen assay.

Test [4] deals with Lysine-specific demethylase 6B (Homo sapiens) (UniProt O15054). Put plainly: Inhibition of C-terminal FLAG-tagged human KDM6B expressed in expressed in Sf9 cells at 50 uM pre-incubated for 4 hrs before substrate addition and measured after 1 hr by AlphaScreen assay.
Lysine-specific demethylase 6B (Homo sapiens), sequence (O15054 whole entry): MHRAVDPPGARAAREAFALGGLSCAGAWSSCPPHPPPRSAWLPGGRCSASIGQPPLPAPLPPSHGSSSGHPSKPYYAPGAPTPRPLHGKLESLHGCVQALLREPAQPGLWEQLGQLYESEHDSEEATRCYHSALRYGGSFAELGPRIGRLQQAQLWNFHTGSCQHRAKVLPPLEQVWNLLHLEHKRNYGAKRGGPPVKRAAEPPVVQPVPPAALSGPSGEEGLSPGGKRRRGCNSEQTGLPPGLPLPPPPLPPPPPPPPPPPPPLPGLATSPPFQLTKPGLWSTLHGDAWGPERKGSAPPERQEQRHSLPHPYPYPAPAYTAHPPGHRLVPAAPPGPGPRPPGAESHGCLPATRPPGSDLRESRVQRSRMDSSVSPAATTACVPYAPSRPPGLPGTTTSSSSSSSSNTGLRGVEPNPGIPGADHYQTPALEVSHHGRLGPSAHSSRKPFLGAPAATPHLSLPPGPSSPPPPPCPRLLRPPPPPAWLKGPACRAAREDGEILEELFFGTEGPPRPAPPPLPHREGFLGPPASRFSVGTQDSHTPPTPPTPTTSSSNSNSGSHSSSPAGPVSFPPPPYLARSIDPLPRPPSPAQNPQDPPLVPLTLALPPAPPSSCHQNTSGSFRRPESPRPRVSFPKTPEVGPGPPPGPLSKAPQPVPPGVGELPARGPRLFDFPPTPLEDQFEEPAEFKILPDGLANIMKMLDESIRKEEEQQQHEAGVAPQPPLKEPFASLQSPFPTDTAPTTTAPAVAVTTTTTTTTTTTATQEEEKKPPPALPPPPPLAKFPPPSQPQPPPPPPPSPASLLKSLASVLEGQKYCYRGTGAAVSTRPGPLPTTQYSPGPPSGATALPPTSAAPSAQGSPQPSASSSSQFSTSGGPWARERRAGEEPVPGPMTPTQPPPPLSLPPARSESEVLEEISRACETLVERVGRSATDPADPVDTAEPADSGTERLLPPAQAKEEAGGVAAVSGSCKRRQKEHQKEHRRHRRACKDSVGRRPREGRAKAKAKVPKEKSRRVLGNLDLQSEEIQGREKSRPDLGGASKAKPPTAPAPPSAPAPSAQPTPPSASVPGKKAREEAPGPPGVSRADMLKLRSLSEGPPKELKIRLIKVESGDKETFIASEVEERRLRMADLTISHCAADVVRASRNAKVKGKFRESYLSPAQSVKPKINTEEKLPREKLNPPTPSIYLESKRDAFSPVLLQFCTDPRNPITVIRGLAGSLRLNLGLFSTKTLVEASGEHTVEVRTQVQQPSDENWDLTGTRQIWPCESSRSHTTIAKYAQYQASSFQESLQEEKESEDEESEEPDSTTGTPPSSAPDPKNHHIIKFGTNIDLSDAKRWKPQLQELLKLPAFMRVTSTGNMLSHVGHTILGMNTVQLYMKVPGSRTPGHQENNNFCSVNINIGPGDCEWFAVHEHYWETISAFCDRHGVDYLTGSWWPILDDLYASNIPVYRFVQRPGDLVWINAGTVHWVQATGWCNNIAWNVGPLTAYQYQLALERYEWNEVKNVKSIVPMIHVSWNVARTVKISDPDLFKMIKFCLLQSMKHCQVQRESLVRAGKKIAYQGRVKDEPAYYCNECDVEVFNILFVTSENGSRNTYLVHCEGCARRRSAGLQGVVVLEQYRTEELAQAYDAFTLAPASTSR
In test [5] the target is Histone deacetylase 1 (Homo sapiens) (UniProt Q13547). The experiment in a line: Inhibition of C-terminal GST-tagged full-length human HDAC1 expressed in Sf9 cells at 100 uM pre-incubated for 10 mins before substrate addition and measured after 20 mins by fluorescence assay.
Histone deacetylase 1 (Homo sapiens), sequence (Q13547 whole entry): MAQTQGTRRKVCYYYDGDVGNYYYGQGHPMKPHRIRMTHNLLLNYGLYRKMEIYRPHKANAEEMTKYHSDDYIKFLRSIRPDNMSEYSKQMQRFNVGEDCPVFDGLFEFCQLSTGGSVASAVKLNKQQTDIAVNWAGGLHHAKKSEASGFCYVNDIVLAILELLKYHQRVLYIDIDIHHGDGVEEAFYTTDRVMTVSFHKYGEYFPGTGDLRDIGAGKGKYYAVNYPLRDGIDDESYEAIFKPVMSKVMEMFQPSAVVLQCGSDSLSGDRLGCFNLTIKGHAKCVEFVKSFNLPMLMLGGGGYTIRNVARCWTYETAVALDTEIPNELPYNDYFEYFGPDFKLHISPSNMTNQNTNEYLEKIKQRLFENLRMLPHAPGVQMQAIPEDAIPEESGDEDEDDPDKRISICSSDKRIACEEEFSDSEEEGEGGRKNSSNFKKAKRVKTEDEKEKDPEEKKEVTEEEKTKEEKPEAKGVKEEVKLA
Test [6] concerns the target T1, Lysine-specific demethylase 5A. The experiment in a line: Inhibition of C-terminal FLAG-tagged human KDM5A expressed in Sf9 cells at 200 uM pre-incubated for 15 mins before H3(1-21)K4me3 peptide substrate addition in presence of 50 uM alpha-KG by formaldehyde dehydrogenase coupled demethylase assay.
For test [7] the target is unchanged. The experiment in a line: Inhibition of C-terminal FLAG-tagged human KDM5A expressed in Sf9 cells at 200 uM pre-incubated for 15 mins before H3(1-21)K4me3 peptide substrate addition in presence of 1000 uM alpha-KG by formaldehyde dehydrogenase coupled demethylase assay.
Test [8] has the same target. Put plainly: Inhibition of KDM5A in human A549 cells assessed as H3K4me3/H3 ratio level at 250 uM levels incubated for 24 hrs by Western blot analysis relative to control. The class given is cell-based. For orientation: A western blot detects proteins with antibodies after separation by electrophoresis.
Test [9] has the same target. The experiment in a line: Inhibition of KDM5A in human A549 cells assessed as H3K4me3/H3 ratio level at 100 uM levels incubated for 24 hrs by Western blot analysis relative to control. The class given is cell-based.
Test [10] shares this target. The experiment in a line: Inhibition of KDM5A in human A549 cells assessed as H3K4me3/H3 ratio level at 50 uM levels incubated for 24 hrs by Western blot analysis relative to control. In kind it is cell-based.
A further test deals with A549. Put plainly: Cytotoxicity in human A549 cells assessed as reduction in cell viability at 250 uM. The class given is functional, cell-based.
Test [11] addresses T3, Lysine-specific demethylase 4A (Homo sapiens, UniProt O75164).
T3 sequence (O75164 whole entry): T2 sequence (whole entry)
The experiment in a line: Inhibition of C-terminal FLAG-tagged human KDM4A expressed in Escherichia coli pre-incubated for 4 hrs before substrate addition and measured after 1 hr by AlphaScreen assay.

Test [12] addresses T1, Lysine-specific demethylase 5A. Put plainly: Inhibition of KDM5A in human A549 cells assessed as increase in H3K4me3/H3 levels incubated for 24 hrs by Western blot analysis. The class given is cell-based.
Test [13] shares this target. The experiment in a line: Inhibition of KDM5A in human A549 cells assessed as increase in H3K4me3/H3 ratio level at 50 to 250 uM levels incubated for 24 hrs by Western blot analysis relative to control. The class given is cell-based.

The source made the active and inactive calls. The rule behind the calls is not given here.

T1 sequence (P29375 whole entry): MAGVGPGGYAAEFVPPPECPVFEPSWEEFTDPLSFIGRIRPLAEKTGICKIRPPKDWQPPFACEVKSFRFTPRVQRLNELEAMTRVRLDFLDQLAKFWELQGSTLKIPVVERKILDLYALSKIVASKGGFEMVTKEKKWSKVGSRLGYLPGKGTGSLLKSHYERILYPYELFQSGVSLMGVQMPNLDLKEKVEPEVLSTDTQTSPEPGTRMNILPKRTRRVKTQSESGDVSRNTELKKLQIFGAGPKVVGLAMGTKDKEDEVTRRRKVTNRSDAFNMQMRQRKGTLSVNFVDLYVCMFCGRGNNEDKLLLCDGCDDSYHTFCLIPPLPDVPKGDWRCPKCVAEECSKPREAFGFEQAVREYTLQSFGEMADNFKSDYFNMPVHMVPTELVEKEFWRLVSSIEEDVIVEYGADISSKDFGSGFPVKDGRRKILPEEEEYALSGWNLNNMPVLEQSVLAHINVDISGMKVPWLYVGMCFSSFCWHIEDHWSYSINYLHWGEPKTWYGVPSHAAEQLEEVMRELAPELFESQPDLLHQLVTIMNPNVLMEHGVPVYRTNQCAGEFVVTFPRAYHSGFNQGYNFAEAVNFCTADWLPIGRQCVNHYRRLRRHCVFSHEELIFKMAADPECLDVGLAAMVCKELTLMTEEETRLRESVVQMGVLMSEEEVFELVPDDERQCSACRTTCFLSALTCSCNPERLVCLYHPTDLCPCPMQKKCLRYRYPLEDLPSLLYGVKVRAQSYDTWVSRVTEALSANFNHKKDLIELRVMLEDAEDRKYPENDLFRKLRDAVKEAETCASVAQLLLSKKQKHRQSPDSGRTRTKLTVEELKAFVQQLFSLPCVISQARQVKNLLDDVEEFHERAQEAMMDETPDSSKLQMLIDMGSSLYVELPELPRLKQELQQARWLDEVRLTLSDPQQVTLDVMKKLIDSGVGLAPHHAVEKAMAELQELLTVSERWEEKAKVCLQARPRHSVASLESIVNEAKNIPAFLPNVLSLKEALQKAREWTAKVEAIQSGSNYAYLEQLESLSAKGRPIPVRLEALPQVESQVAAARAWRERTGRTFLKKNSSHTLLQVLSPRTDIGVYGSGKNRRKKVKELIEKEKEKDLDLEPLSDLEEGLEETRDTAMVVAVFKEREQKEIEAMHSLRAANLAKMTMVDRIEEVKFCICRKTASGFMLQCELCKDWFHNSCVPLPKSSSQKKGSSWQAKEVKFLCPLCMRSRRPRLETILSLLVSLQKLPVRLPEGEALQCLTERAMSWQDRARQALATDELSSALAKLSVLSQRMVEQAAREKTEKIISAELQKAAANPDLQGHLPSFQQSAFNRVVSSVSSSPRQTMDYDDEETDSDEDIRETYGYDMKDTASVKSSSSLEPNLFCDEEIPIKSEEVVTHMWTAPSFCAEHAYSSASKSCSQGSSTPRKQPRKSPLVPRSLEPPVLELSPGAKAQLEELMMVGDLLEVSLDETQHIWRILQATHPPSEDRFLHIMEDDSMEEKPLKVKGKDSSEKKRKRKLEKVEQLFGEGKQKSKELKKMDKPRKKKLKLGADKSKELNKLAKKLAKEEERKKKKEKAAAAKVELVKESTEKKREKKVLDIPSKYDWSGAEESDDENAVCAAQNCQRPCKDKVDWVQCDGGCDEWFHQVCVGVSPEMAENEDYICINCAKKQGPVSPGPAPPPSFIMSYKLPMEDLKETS

Consider `CC(=O)Nc1ccc(C(=O)O)cc1O`, for which the inhibition result in test [1] was “Active”.

Regarding `O=CNc1ccc(C(=O)O)cc1O`, the inhibition in test [1] came to 87%; in test [3], 20%; in test [4], 38%; in test [5], 6%; in test [6] it was 97%; in test [7] it was 44%. In addition, the IC50 in [2] was found to be 46 µM. Further, the Ratio in test [8] was found to be 0.96; in test [9], 1.01; in [10], 0.93. Also, in the test with A549, the result was inactive.

`O=CNc1cc(C(=O)O)ccc1O`: the inhibition in [1] was 73%. The compound also came in with an IC50 in test [2] of 48 µM.

In the case of `CC(=O)Nc1cc(C(=O)O)ccc1O`, the inhibition result in test [1] was “Active”.

Regarding `CCCCCN(C)CCCCC(=O)N(O)CCC(=O)O`, the IC50 in [2] worked out at 0.079 µM.

Consider `CC(=O)Nc1ccc(C(=O)O)cc1N`, for which the inhibition result in test [1] is “inactive”.

Compound `O=C(O)CNC(=O)C(=O)O` [N-OXALYLGLYCINE] showed an IC50 in [11] of 85 µM.

With `COC(=O)c1ccc(NC=O)c(O)c1`, the inhibition result in [12] is “Dose-dependent effect”. In addition, the Ratio in test [8] is 2.15; in [9], 1.72; in test [10], 1.31. The fold change (FC) in [13] lay in the range of 1.7 to 2.2. The outcome in the test on A549 was inactive.

Usually inhibition stands for the change of the read-out against control, counted positive when it falls. Broadly, the IC50 is the midpoint of a concentration-inhibition curve. Low readings indicate greater potency, high ones weaker potency.
